Data published in patent US7354955B2, “(2S)-amino(phenyl)acetic acid and derivatives as α2δ voltage-gated calcium channel ligands” (Abbott Laboratories, priority 2004, dated 2008).
Read-outs that look alike come from different tables or passages of the source.

Columns and labels:
gabapentin binding site = conditions: cited from earlier work
[1] = tested on: mechanical allodynia in rats that had undergone spinal nerve ligation; assay: Analgesic effect: mechanical allodynia (von Frey) after L5/L6 spinal nerve ligation; conditions: oral, 60 minutes before von Frey testing; percentage of maximal protective effect relative to vehicle; Sprague Dawley rats
[2] = anti-convulsant drugs, background statement

For `O=C1NC(=O)C(c2ccccc2)(c2ccccc2)N1` [phenytoin], the “competition for gabapentin binding” value (gabapentin binding site; [2]) is given as “do not compete”.

In the case of ryanodine, the “interaction with the gabapentin binding site” value (from here on “interaction”) (gabapentin binding site) is listed as “do not interact”.

For `COc1cc(CNC(=O)CCCC/C=C/C(C)C)ccc1O` [capsaisin], the “interaction” value (gabapentin binding site) is given as “do not interact”.

In the case of `C[C@]12N[C@H](Cc3ccccc31)c1ccccc12` [MK801], the “interaction” value (gabapentin binding site) is listed as “do not interact”.

For `CN1C(=O)CN=C(c2ccccc2)c2cc(Cl)ccc21` [diazepam], the “competition for gabapentin binding” value (gabapentin binding site) is listed as “do not compete”.

In the case of `COc1ccc(CCN(C)CCCC(C#N)(c2ccc(OC)c(OC)c2)C(C)C)cc1OC` (centres unmarked) [verapamil], the “interaction” value (gabapentin binding site) is listed as “do not interact”.

In the case of `NCC1(CC(=O)O)CCCCC1` [Gabapentin], the EC50 [1] is reported as 160 µmol/kg.

In the case of `CCC1(c2ccccc2)C(=O)NC(=O)NC1=O` [phenobarbitone], the “competition for gabapentin binding” value (gabapentin binding site) is given as “do not compete”.

Work on `N[C@H](C(=O)O)c1ccccc1` [(2S)-amino(phenyl)acetic acid] yielded an EC50 [1] of 50 µmol/kg.

For `NC(=O)N1c2ccccc2C=Cc2ccccc21` [carbamazepine], the “competition for gabapentin binding” value (gabapentin binding site; [2]) is given as “do not compete”.

In the case of `Cn1c(=O)c2c(ncn2C)n(C)c1=O` [caffeine], the “interaction” value (gabapentin binding site; ligands for other calcium channel subtypes, background statement) is listed as “do not interact”.
